The target of the experiment is T1, 20S proteasome (Trypanosoma cruzi, UniProt V5BU39).
T1 construct: gene TCDM_03188; ATP in assay, so 20S and 26S forms not separated; with Proteasome subunit beta type-1; Proteasome subunit beta type-2; Proteasome subunit beta type-3; Proteasome subunit beta type-4; Proteasome subunit beta type-7; Proteasome subunit alpha type-1; Proteasome subunit alpha type-2; Proteasome subunit alpha type-3; Proteasome subunit alpha type-4; Proteasome subunit alpha type-5; Proteasome subunit alpha type-6; Proteasome subunit alpha type-7
Briefly: fluorimetric peptidase assay in crude extract. In kind it is biochemical. Particulars: read-out: % inhibition at 50 μM (chymotrypsin-like activity).

Drawing on publication PMC3117861, “Analysis of Proteasomal Proteolysis during the In Vitro Metacyclogenesis of Trypanosoma cruzi” (PLoS ONE, 2011), this text covers inhibition for one compound.

Where a SMILES comes first, the peptide text is derived from it. The star is where a group is joined. Cbz = O=C(OCc1ccccc1)*

Broadly, the inhibition is the drop in the measured response relative to a control, in per cent. For the compound `CC(C)C[C@@H](C=O)NC(=O)[C@H](CC(C)C)NC(=O)[C@H](CC(C)C)NC(=O)OCc1ccccc1` [MG132] (Cbz-Leu-Leu-Leu-aldehyde), the inhibition at 50 µM turned out to be 95%.
